According to patent US10202658B2, “Methods for determining hypersusceptibility of HIV-1 to non-nucleoside reverse transcriptase inhibitors” (Monogram Biosciences, Inc., priority 2005, dated 2019):

System: HIV-1 clinical isolates grouped by RT mutations
Experiment: Pairwise comparison of NNRTI fold change between groups of clinical isolates (Student's T-test, Bonferroni's Multiple Comparison Test)
Format: cell-based
Description: This example provides methods and compositions for identifying mutations that correlate with hypersusceptibility to a NNRTI. Resistance test vectors were constructed and used as described in Example 1. Resistance test vectors derived from patient samples or clones derived from the resistance test vector pools were tested in a resistance assay to determine accurately and quantitatively the relative EFV, DLV, or NVP resistance or susceptibility compared to the median observed resistance or susceptibility.
To identify mutations associated with NNRTI hypersusceptibility, the following analysis was performed. […] The TAMs referenced in. Table 1 include M41L, D67N, K70R, L210W, T215FY, and K219X, while the NAMs referenced include K65R, T69X, L74IV, V75X, and M184IV. Isolates without NRTI, NNRTI or PI mutations served as a wild type (WT) reference group. Further comparison groups comprised isolates with three TAMS including T215Y (+/−H208Y, +/−V118I) or three TAMS including K70R. Scatter plots and statistical tests (See FIGS. 1-6) were generated using Prism 4.0 (GraphPad, San Diego, Calif.)
In addition, a pairwise comparison between two sets of data was conducted using Bonferroni's Multiple Comparison Test using the Prism 4.0 software. The results of the comparison are presented in Tables 2, 3, and 4, appended to the end of this document. Samples with K65R, K65R+M184V, or 2 TAMs in combination with T215Y had over 40% with EFV FC<0.4.

CC(C)Nc1cccnc1N1CCN(C(=O)c2cc3cc(NS(C)(=O)=O)ccc3[nH]2)CC1 [DLV, delavirdine]
Mean Diff. of fold change (1 NAM vs 2 NAMs): 0.2985 | Mean Diff. of fold change (1 NAM vs 3 NAMs): 0.293 | Mean Diff. of fold change (1 NAM vs K65R): 0.3868 | Mean Diff. of fold change (1 NAM vs K65R + M184V): 0.5114 | Mean Diff. of fold change (1 NAM vs K70R_3_TAMs): −0.5755 | Mean Diff. of fold change (1 NAM vs M184V): −0.007762 | Mean Diff. of fold change (1 NAM vs T69): −0.1256 | Mean Diff. of fold change (1 NAM vs T215Y_3_TAMs): 0.6784 | Mean Diff. of fold change (1 NAM vs T215Y_3_TAMs_118): 0.6483 | Mean Diff. of fold change (1 NAM vs T215Y_3_TAMs_208): 0.7831 | Mean Diff. of fold change (1 NAM vs T215Y_3_TAMs_no118): 0.6983 | Mean Diff. of fold change (1 NAM vs T215Y_3_TAMs_no208): 0.6612 | Mean Diff. of fold change (2 NAMs vs 3 NAMs): −0.005498 | Mean Diff. of fold change (2 NAMs vs K65R): 0.08826 | Mean Diff. of fold change (2 NAMs vs K65R + M184V): 0.2128 | Mean Diff. of fold change (2 NAMs vs K70R_3_TAMs): −0.874 | Mean Diff. of fold change (2 NAMs vs M184V): −0.3063 | Mean Diff. of fold change (2 NAMs vs T69): −0.4242 | Mean Diff. of fold change (2 NAMs vs T215Y_3_TAMs): 0.3799 | Mean Diff. of fold change (2 NAMs vs T215Y_3_TAMs_118): 0.3498 | Mean Diff. of fold change (2 NAMs vs T215Y_3_TAMs_208): 0.4845 | Mean Diff. of fold change (2 NAMs vs T215Y_3_TAMs_no118): 0.3997 | Mean Diff. of fold change (2 NAMs vs T215Y_3_TAMs_no208): 0.3627 | Mean Diff. of fold change (3 NAMs vs K65R): 0.09376 | Mean Diff. of fold change (3 NAMs vs K65R + M184V): 0.2183 | Mean Diff. of fold change (3 NAMs vs K70R_3_TAMs): −0.8685 | Mean Diff. of fold change (3 NAMs vs M184V): −0.3008 | Mean Diff. of fold change (3 NAMs vs T69): −0.4187 | Mean Diff. of fold change (3 NAMs vs T215Y_3_TAMs): 0.3854 | Mean Diff. of fold change (3 NAMs vs T215Y_3_TAMs_118): 0.3553 | Mean Diff. of fold change (3 NAMs vs T215Y_3_TAMs_208): 0.49 | Mean Diff. of fold change (3 NAMs vs T215Y_3_TAMs_no118): 0.4052 | Mean Diff. of fold change (3 NAMs vs T215Y_3_TAMs_no208): 0.3682 | Mean Diff. of fold change (K65R + M184V vs K70R_3_TAMs): −1.087 | Mean Diff. of fold change (K65R + M184V vs T215Y_3_TAMs): 0.167 | Mean Diff. of fold change (K65R + M184V vs T215Y_3_TAMs_118): 0.137 | Mean Diff. of fold change (K65R + M184V vs T215Y_3_TAMs_208): 0.2717 | Mean Diff. of fold change (K65R + M184V vs T215Y_3_TAMs_no118): 0.1869 | Mean Diff. of fold change (K65R + M184V vs T215Y_3_TAMs_no208): 0.1499 | Mean Diff. of fold change (K65R vs K65R + M184V): 0.1246 | Mean Diff. of fold change (K65R vs K70R_3_TAMs): −0.9623 | Mean Diff. of fold change (K65R vs M184V): −0.3946 | Mean Diff. of fold change (K65R vs T69): −0.5124 | Mean Diff. of fold change (K65R vs T215Y_3_TAMs): 0.2916 | Mean Diff. of fold change (K65R vs T215Y_3_TAMs_118): 0.2615 | Mean Diff. of fold change (K65R vs T215Y_3_TAMs_208): 0.3963 | Mean Diff. of fold change (K65R vs T215Y_3_TAMs_no118): 0.3115 | Mean Diff. of fold change (K65R vs T215Y_3_TAMs_no208): 0.2744 | Mean Diff. of fold change (K70R_3_TAMs vs T215Y_3_TAMs_118): 1.224 | Mean Diff. of fold change (K70R_3_TAMs vs T215Y_3_TAMs_no118): 1.274 | Mean Diff. of fold change (M184V vs K65R + M184V): 0.5191 | Mean Diff. of fold change (M184V vs K70R_3_TAMs): −0.5677 | Mean Diff. of fold change (M184V vs T69): −0.1179 | Mean Diff. of fold change (M184V vs T215Y_3_TAMs): 0.6862 | Mean Diff. of fold change (M184V vs T215Y_3_TAMs_118): 0.6561 | Mean Diff. of fold change (M184V vs T215Y_3_TAMs_208): 0.7908 | Mean Diff. of fold change (M184V vs T215Y_3_TAMs_no118): 0.706 | Mean Diff. of fold change (M184V vs T215Y_3_TAMs_no208): 0.669 | Mean Diff. of fold change (T69 vs K65R + M184V): 0.637 | Mean Diff. of fold change (T69 vs K70R_3_TAMs): −0.4499 | Mean Diff. of fold change (T69 vs T215Y_3_TAMs): 0.8041 | Mean Diff. of fold change (T69 vs T215Y_3_TAMs_118): 0.774 | Mean Diff. of fold change (T69 vs T215Y_3_TAMs_208): 0.9087 | Mean Diff. of fold change (T69 vs T215Y_3_TAMs_no118): 0.8239 | Mean Diff. of fold change (T69 vs T215Y_3_TAMs_no208): 0.7869 | Mean Diff. of fold change (T215Y_3_TAMs vs K70R_3_TAMs): −1.254 | Mean Diff. of fold change (T215Y_3_TAMs vs T215Y_3_TAMs_118): −0.03008 | Mean Diff. of fold change (T215Y_3_TAMs vs T215Y_3_TAMs_208): 0.1046 | Mean Diff. of fold change (T215Y_3_TAMs vs T215Y_3_TAMs_no118): 0.01984 | Mean Diff. of fold change (T215Y_3_TAMs vs T215Y_3_TAMs_no208): −0.01718 | Mean Diff. of fold change (T215Y_3_TAMs_208 vs K70R_3_TAMs): −1.359 | Mean Diff. of fold change (T215Y_3_TAMs_208 vs T215Y_3_TAMs_118): −0.1347 | Mean Diff. of fold change (T215Y_3_TAMs_208 vs T215Y_3_TAMs_no118): −0.0848 | Mean Diff. of fold change (T215Y_3_TAMs_208 vs T215Y_3_TAMs_no208): −0.1218 | Mean Diff. of fold change (T215Y_3_TAMs_no118 vs T215Y_3_TAMs_118): −0.04992 | Mean Diff. of fold change (T215Y_3_TAMs_no208 vs K70R_3_TAMs): −1.237 | Mean Diff. of fold change (T215Y_3_TAMs_no208 vs T215Y_3_TAMs_118): −0.0129 | Mean Diff. of fold change (T215Y_3_TAMs_no208 vs T215Y_3_TAMs_no118): 0.03702 | mean fold change (FC) compared to the WT population (all groups containing NAMs or the combination of TAMs shown in Table 1, p<0.0001, Student's T-test): significantly lower | Mean Diff. of fold change (wt vs 1 NAM): 0.3819 | Mean Diff. of fold change (wt vs 2 NAMs): 0.6804 | Mean Diff. of fold change (wt vs 3 NAMs): 0.6749 | Mean Diff. of fold change (wt vs K65R): 0.7687 | Mean Diff. of fold change (wt vs K65R + M184V): 0.8932 | Mean Diff. of fold change (wt vs K70R_3_TAMs): −0.1936 | Mean Diff. of fold change (wt vs M184V): 0.3741 | Mean Diff. of fold change (wt vs T69): 0.2562 | Mean Diff. of fold change (wt vs T215Y_3_TAMs): 1.06 | Mean Diff. of fold change (wt vs T215Y_3_TAMs_118): 1.03 | Mean Diff. of fold change (wt vs T215Y_3_TAMs_208): 1.165 | Mean Diff. of fold change (wt vs T215Y_3_TAMs_no118): 1.08 | Mean Diff. of fold change (wt vs T215Y_3_TAMs_no208): 1.043
